ChEMBL document CHEMBL5154690, “Discovery of a tricyclic farnesoid X receptor agonist HEC96719, a clinical candidate for treatment of non-alcoholic steatohepatitis” (Eur J Med Chem, 2022)
Calls of active or inactive are those of the source. The calls are words filed in the database; no cut-off is given here.

Tests used:
[1] = target: T1, Bile acid receptor (Homo sapiens, UniProt Q96RI1); test: Agonist activity at FXR-LBD (unknown origin) assessed as induction of coactivator SRC-1 peptide recruitment measured by TR-FRET assay
T1 sequence (Q96RI1 whole entry): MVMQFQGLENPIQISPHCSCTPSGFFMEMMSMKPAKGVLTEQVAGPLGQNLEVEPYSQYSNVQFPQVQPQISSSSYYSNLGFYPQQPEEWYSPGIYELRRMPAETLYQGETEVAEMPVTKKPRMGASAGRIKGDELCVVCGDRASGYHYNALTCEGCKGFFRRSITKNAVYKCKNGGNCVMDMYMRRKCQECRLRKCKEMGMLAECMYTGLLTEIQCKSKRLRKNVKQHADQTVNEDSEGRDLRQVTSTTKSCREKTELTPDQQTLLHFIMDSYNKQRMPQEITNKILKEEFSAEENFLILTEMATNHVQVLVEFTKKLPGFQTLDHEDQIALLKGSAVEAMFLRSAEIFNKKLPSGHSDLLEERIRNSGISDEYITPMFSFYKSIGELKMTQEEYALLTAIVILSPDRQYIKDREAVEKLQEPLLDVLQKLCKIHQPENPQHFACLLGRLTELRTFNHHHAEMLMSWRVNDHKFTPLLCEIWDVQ

[2] = target: T1, Bile acid receptor; test: Agonist activity at human FXR expressed in HEK293T cells by luciferase reporter assay; assay type: cell-based
[3] = Toxicity in alpha-naphthyl- isothiocyanate (ANIT)-induced cholestatic injury model of Sprague-Dawley rat assessed as effect on […] death; details: in vivo
[4] = Half-life in male Sprague-Dawley rat at 5 mg/kg, po measured by LC-MS/MS analysis; assay type: ADME, organism-based; details: in vivo
[5] = Cmax in male Sprague-Dawley rat at 5 mg/kg, po measured by LC-MS/MS analysis; assay type: ADME, organism-based; design: dose 5 mg/kg, route po; details: in vivo
[6] = AUC (0 to t) in male Sprague-Dawley rat at 5 mg/kg, po measured by LC-MS/MS analysis; assay type: ADME, organism-based; design: dose 5 mg/kg, route po; details: in vivo
[7] = AUC (0 to t) in male Sprague-Dawley rat at 1 mg/kg, iv measured by LC-MS/MS analysis; assay type: ADME, organism-based; design: dose 1 mg/kg, route iv; details: in vivo
[8] = Clearance in male Sprague-Dawley rat at 1 mg/kg, iv measured by LC-MS/MS analysis; assay type: ADME, organism-based; details: in vivo
[9] = Volume of distribution at steady state in male Sprague-Dawley rat at 1 mg/kg, iv measured by LC-MS/MS analysis; assay type: ADME, organism-based; details: in vivo, read-out: Vdss
[10] = Oral bioavailability in male Sprague-Dawley rat at 5 mg/kg measured by LC-MS/MS analysis; assay type: ADME, organism-based; details: in vivo
[11] = tested on: Mus musculus; test: Anti-NASH activity against high fat (HF) diet-induced nonalcoholic steatohepatitis in leptin-deficient ob/ob mouse model assessed as reduction in serum ALT level at 3 mg/kg, po administered once daily from week 5 to 10; assay type: functional, organism-based
[12] = tested on: Mus musculus; test: Anti-NASH activity against high fat (HF) diet-induced nonalcoholic steatohepatitis in leptin-deficient ob/ob mouse model assessed as reduction in serum TG level at 3 mg/kg, po administered once daily from week 5 to 10; assay type: functional, organism-based
[13] = tested on: Mus musculus; test: Anti-NASH activity against high fat (HF) diet-induced nonalcoholic steatohepatitis in leptin-deficient ob/ob mouse model assessed as reduction in liver cholesterol level at 3 mg/kg, po administered once daily from week 5 to 10; assay type: functional, organism-based
[14] = Toxicity in alpha-naphthyl- isothiocyanate (ANIT)-induced cholestatic injury model of Sprague-Dawley rat assessed as effect on […] death at 10 mg/kg, po administered once daily for 4 days; assay type: organism-based; details: in vivo, 96 h, time 4 day

SMILES | EC50 [1] [nM] | EC50 [2] [nM] | half-life [4] [min] | Cmax [5] [ng/mL] | AUC(0-t) [6] [ng·h/mL] | AUC(0-t) [7] [ng·h/mL] | clearance [8] [mL/min/kg] | Vd [9] [L/kg] | bioavailability [10] [%] | Activity [11] | Activity [12] | Activity [13] | other results
O=C(O)c1ccc2c(c1)Oc1ccc(OCc3c(-c4c(Cl)cccc4Cl)noc3C3CC3)nc1CC2 | 3.57 | 102 | 44.4 | 3000 | 1250 | 1180 | 14.3 | 0.4 | 37.1 | Active | Active | Active | Activity [3]: Non-Toxic
O=C(O)c1ccc2c(c1)Oc1ncc(OCc3c(-c4c(Cl)cccc4Cl)noc3C3CC3)cc1CC2 | 37 |  |  |  |  |  |  |  |  |  |  |  | 
CC1Cc2ccc(C(=O)O)cc2Oc2ccc(OCc3c(-c4c(Cl)cccc4Cl)noc3C3CC3)nc21 (stereo unspecified) |  |  | 55.8 | 1280 | 2230 | 554 | 30.3 | 0.54 | 44.9 | Active | Active | Active | 
O=C(O)c1ccc2c(c1)Oc1ccc(OCc3c(-c4c(Cl)cccc4Cl)noc3C3CC3)cc1CC2 | 833 | 345 |  |  |  |  |  |  |  |  |  |  | Activity [14]: Toxic

More lines, main results first:

EC50 [1] [nM] | EC50 [2] [nM] | half-life [4] [min] | Cmax [5] [ng/mL] | AUC(0-t) [6] [ng·h/mL] | AUC(0-t) [7] [ng·h/mL] | clearance [8] [mL/min/kg] | Vd [9] [L/kg] | bioavailability [10] [%] | SMILES | Activity [11] | Activity [12] | Activity [13] | other results
17.3 | 219 |  |  |  |  |  |  |  | O=C(O)c1ccc2c(c1)Oc1ccc(OCc3c(-c4c(Cl)cccc4Cl)noc3C3CC3)nc1C=C2F |  |  |  | 
 |  | 72 | 2210 | 1180 | 963 | 17.5 | 0.35 | 46.2 | CC1=Cc2ccc(C(=O)O)cc2Oc2ccc(OCc3c(-c4c(Cl)cccc4Cl)noc3C3CC3)nc21 | Active | Active | Active | 
6.03 | 87.3 |  |  |  |  |  |  |  | CC1=Cc2nc(OCc3c(-c4c(Cl)cccc4Cl)noc3C3CC3)ccc2Oc2cc(C(=O)O)ccc21 |  |  |  | 
 | 372 |  |  |  |  |  |  |  | O=C(O)c1cc(F)c2c(c1)Oc1ccc(OCc3c(-c4c(Cl)cccc4Cl)noc3C3CC3)nc1CC2 |  |  |  | 
14.3 | 114 |  |  |  |  |  |  |  | O=C(O)c1ccc2c(c1)Oc1ccc(OCc3c(-c4c(Cl)cccc4Cl)noc3C3CC3)nc1CO2 |  |  |  | 
11.7 | 161 |  |  |  |  |  |  |  | O=C(O)c1ccc2c(c1)Oc1cnc(OCc3c(-c4c(Cl)cccc4Cl)noc3C3CC3)cc1CC2 |  |  |  | 
